# Measured values reported in EP0209430A2, “L-di or tripeptides possessing a biological activity for use in human and veterinary medicines, process for their obtention and medicines containing them” (INSTITUT DE RECHERCHES CHIMIQUES ET BIOLOGIQUES APPLIQUEES …, priority 1985, dated 1987).
# Key:
# Test in all cases: MIC (C.M.I.) in agar medium
# Assay type in all cases: cell-based
# [1] = test system: Klebsiella p.; conditions: Klebsiella p. La 433, inoculum 10^4 à 10^5 bacteria per ml
# Description: (§1) Par exemple, nous décrivons les C.M.I. (concentrations minimales inhibitrices) en µg/ml, obtenues en milieu gélosé pour un inoculum de 10^4 à 10^5 bactéries par millilitre, du composé B 1067.
# [2] = test system: Salmonella E.; conditions: Salmonella E. CNCM 57.29, inoculum 10^4 à 10^5 bacteria per ml
# Description: as §1
# [3] = test system: E. Coli
# Description: as §1
# [4] = test system: S. faecalis; conditions: Enterococcus faecalis, ATCC14508, S. faecalis ATCC 14508, inoculum 10^4 à 10^5 bacteria per ml
# Description: as §1
# [5] = test system: S. aureus; conditions: Staphylococcus aureus
# Description: as §1
# [6] = test system: Serratia; conditions: Serratia 22.579, inoculum 10^4 à 10^5 bacteria per ml
# Description: as §1
structure (smiles),measurement,setting,value
"C[C@H](N)C(=O)N[C@@H](C)P(=O)(O)O [B 1067, Selde l'amino-2-(hydroxyméthyl)-2-propanediol-1,3 avec l'acide L-Alanyl-L-(amino-1)-éthylphosphonique]",MIC,[1],16 mg/L
same,MIC,[2],1 mg/L
same,C.M.I.,"[3]; E. Coli CNCM 53.126, inoculum 10^4 à 10^5 bacteria per ml","0,25 µg/ml"
same,MIC,"[3]; Escherichia coli, E. Coli CNCM 54.8, inoculum 10^4 à 10^5 bacteria per ml",0.25 mg/L
same,MIC,[4],32 mg/L
same,MIC,"[5]; ATCC63, S. aureus ATCC 63.58 P, inoculum 10^4 à 10^5 bacteria per ml",32 mg/L
same,MIC,"[5]; ATCC29213, S. aureus ATCC 29213, inoculum 10^4 à 10^5 bacteria per ml",8 mg/L
same,MIC,"[5]; S. aureus CNCM 52.149, inoculum 10^4 à 10^5 bacteria per ml",32 mg/L
same,MIC,[6],32 to 64 mg/L
